“Also recorded” adds a separate entry of the source.
Key:
[1] = system: aA-crystallin-Y118D and aB-crystallin-R120G; experiment: Dissolving of accumulated crystal protein in cells carrying two crystallin mutant plasmids; format: cell-based; conditions: 10 uM, compared with 1% DMSO solution
Procedure: FIG. 13. Two mutant crystal proteins were introduced into cells. The accumulated crystal protein were treated by adding different agents.
Cyclopentanoperhy drophenanthrene compounds of the present invention refers to a compound containing cyclopentanoperhy drophenanthrene skeleton structure, including its derivatives. After the two crystal protein mutant plasmid aA-crystallin-Y118D and aB-crystallin-R120G were introduced into cells, we investigated the lanosterol and its derivatives as well as cholesterol (Cholesterol) for their effects on intracellular accumulation of crystal protein. Not all cyclopentanoperhy drophenanthrene compound have the same effect.

[2] = system: various cataract-causing crystallin mutants; experiment: Aggresome / intracellular aggregate formation of crystallin mutants in transfected cells (confocal microscopy); format: cell-based; conditions: 0-40 μM sterols in 2% DMSO, 2 h treatment then 12 h culture; lanosterol effect dose-dependent
Procedure: The effect of lanosterol or cholesterol on the aggresome formation of various crystallins was studied by transfecting the cells using plasmids containing various crystallin genes. The cells were cultivated for 24 h to enable efficient protein expression and aggresome formation. Then the cells were treated with 0-40 μM sterols in 2% DMSO. The cells treated with 2% DMSO were used as the control. After treatment for 2 h, the cells were moved to fresh DMEM medium containing 10% fetal bovine serum and further cultivated for 12 h. Then the cells were used for microscopy analysis.
The microscopy samples were prepared by washing the slips by phosphate buffered saline (PBS) three times. The cells were fixed with 4% paraformaldehyde for 40 min followed by three times washing with PBS. The cells were permeabilized with 0.1% Triton X-100 (Sigma) in PBS for 10 min and blocked with 5% normal goat serum in PBS for 1 h at 37° C. Immunostaining was carried out by adding mouse anti-Flag antibody (1:500) or anti-p62 antibody (1:200) in PBS buffer containing 5% normal goat serum and cultivated for 1 h at 37° C. Then the slips were washed three times with PBS, and further incubated with Alexa 649-conjugated goat anti-mouse IgG (1:250) for 1 h at ambient temperature. The nuclei were counterstained with Hoechst 33342. The mounted cells were analyzed using a Carl Zeiss LSM 710 confocal microscope.

[3] = system: aggregates of various WT and mutated crystallins; experiment: In vitro protein assay: dissociation of preformed crystallin aggregates (turbidity, soluble protein, EM); format: biochemical; conditions: 37° C.
Procedure: Evaluation of the effect of lanosterol on the dissolution of crystallin aggregates by turbidity. Crystallin aggregates were formed by incubating 5mgml21 protein solution at 60° C. for 2 h (α-crystallins) or 37° C. for 48 h (β- and γ-crystallins) in the presence of 1M guanidine chloride. The preformed aggregates were re-suspended in PBS at a final protein concentration of 0.2 mg/ml and were treated with 500 μM sterols in 500 μM DPPC liposome and incubated at 37° C. for 24 h. Aggregates treated with 500 μM DPPC liposome only were used as the controls.
The α-crystallin aggregates were formed by incubating 5 mg/ml protein solutions at 60° C. for 48 h in the presence of 1 M guanidine chloride. The β- and γ-crystallin aggregates were prepared by incubating the protein solutions at 37° C. and pH 3 for 48 h. The preformed aggregates were re-suspended in PBS with a final protein concentration of 0.1 mg/ml. The re-suspended aggregates were treated by 50 μM sterols in 50 μM DPPS liposome and incubated at 37° C. for 144 h. The aggregates treated by 50 μM DPPS liposome were used as the controls. The supernatant and precipitation fractions were separated by centrifugation. The protein concentrations in the supernatant fraction were determined by absorbance at 280 nm and the percentages of the soluble proteins were calculated from three independent repetitions.
The recombinant his-tagged WT and mutated β- and γ-crystallin proteins were overexpressed in E. coli Rosetta and purified by Ni-NTA affinity column followed by gel filtration chromatography using the same protocol as those described elsewhere 13,14,16,18. The overexpression and purification of the non-tagged αA- and αB-crystallins were performed as described previously 19. The purity of the proteins were estimated to be above 95% as evaluated by one homogeneous band on 12.5% SDS-PAGE, 10% native-PAGE and a single peak in the size-exclusion chromatographyprofile. The protein concentration was determined according to the Bradford method by using BSA as the standard 20. All protein samples were prepared in 20 mM PBS buffer containing 150 mM NaCl, 1 mM EDTA and 1 mM DTT.
(§1) The aggregates of the WT and mutated αA- and αB-crystallin proteins were obtained by heating the proteins solutions containing 1 M guanidine chloride (ultrapure, Sigma) with a concentration of 5 mg/ml at 60° C. for 48 h. The aggregates of the WT and mutated β- and γ-crystallins were prepared by heating the protein solutions at pH 3 and 37° C. for 48 h. The formation of aggregates was confirmed by turbidity (absorbance at 400 nm) and transmission electron microscope (EM) measurements. The preformed aggregates were resuspended in 20 mM PBS with a final concentration of 0.1 mg/ml (approximately 5 μM). The resuspended aggregates were treated by 50 μM lanosterol or cholesterol in liposomes formed by 50 μM DPPS at 37° C. After 72 h treatment, the protein solutions were used for negative-stained EM observations. After 144 h incubation, the protein solutions were used for turbidity measurements and determinations of protein concentrations in the soluble fractions. The soluble proteins were determined by centrifuge the protein solutions to separate the supernatant and precipitation fractions. Then the protein concentration in the supernatant was determined by the Bradford method. The EM samples were prepared by depositing the protein solutions onto a freshly glow-discharged carbon coated copper grid. […]

[4] = biological target: T1, αB-crystallin R120G mutant (Homo sapiens, UniProt P02511, R120G); experiment: Negative-stain EM of aggregates treated with sterol in liposome; format: biochemical; conditions: negatively stained EM
T1 construct: made in house
T1 sequence (P02511 1-175 R120G): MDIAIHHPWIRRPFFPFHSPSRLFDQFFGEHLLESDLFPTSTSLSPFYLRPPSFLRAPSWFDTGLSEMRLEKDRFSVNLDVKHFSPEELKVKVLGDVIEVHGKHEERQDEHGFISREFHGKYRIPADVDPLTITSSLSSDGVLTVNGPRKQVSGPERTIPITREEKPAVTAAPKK
Procedure: Representative negatively stained EM pictures of the aggregates of αB-crystallin R120G mutant treated by liposome, lanosterol in liposome and cholesterol in liposome, respectively. The EM samples were stained by 1.25% uranyl acetate.
Quantitative analysis was performed by calculating the number of particles with length over 50 nm from six randomly picked viewing field. Each viewing field contained 30-50 particles.
as §1, with “After 72 h treatment, the protein solutions were used for negative-stained EM observations. After 144 h incubation, the protein solutions were used for turbidity measurements and determinations of protein concentrations in the soluble fractions.” left out, “method.” for “method. The EM samples were prepared by depositing the protein solutions onto a freshly glow-discharged carbon coated copper grid.”

`CC(C)CCC[C@@H](C)[C@H]1CC[C@H]2C3=CC[C@H]4C[C@@H](O)CC[C@]4(C)[C@H]3CC[C@]12C` [5α-cholest-7-en-3β-ol] was tested, and the “dissolving of accumulated crystal protein” value (shortened to “dissolving”) [1] was “significant dissolving of the accumulated crystal protein” and the “dissolving” value ([1]; listed as 5a-cholest-7-en-3β-ol) was “significantly dissolve accumulated crystals protein”.
For `CC(C)CCC[C@@H](C)[C@H]1CC[C@H]2[C@@H]3CC=C4C[C@@H](O)CC[C@]4(C)[C@H]3CC[C@]12C` [Cholesterol, reference compound], the “intracellular aggregation of various cataract-causing crystallin mutants” value [2] was “did not affect the formation of intracellular aggregates”, the “dissolution of crystallin aggregates by turbidity” value ([3]; 500 μM sterols in 500 μM DPPC liposome, 24 h, 0.2 mg/ml protein) was “could not” and the “dissociation of aggregates of various WT and mutated crystallins” value ([3]; in vitro protein assay, 50 μM sterol in 50 μM DPPS liposome) was “could not and not”. The “dissociation of aggregates formed by αB-crystallin R120G mutant (number of particles with length over 50 nm)” value [4] was “not” and the “dissolving” value [1] was “cannot effectively dissolve”.
For `CC(C)=CCC[C@@H](C)[C@H]1CC[C@@]2(C)[C@@H]3CC[C@H]4C(C)(C)[C@@H](O)CC[C@]4(C)C3=CC[C@]12C` [Parkeol], the “dissolving” value [1] was “significant dissolving of the accumulated crystal protein” and the “dissolving” value ([1]; listed as parkeol) was “significantly dissolve accumulated crystals protein”.
With `CC(C)=CCC[C@@H](C)[C@H]1CC[C@H]2C3=C(CC[C@]12C)[C@@]1(C)CC[C@H](O)C[C@@H]1CC3` [Zymosterol, 5α-Cholesta-8,24-dien-3β-ol] the “dissolving” value [1] was “significant dissolving of the accumulated crystal protein” and the “dissolving” value ([1]; listed as zymosterol) was “significantly dissolve accumulated crystals protein”.
`CC(C)[C@@H](C)/C=C/[C@@H](C)[C@H]1CC[C@H]2C3=CC=C4C[C@@H](O)CC[C@]4(C)[C@H]3CC[C@]12C` [ergosterol] was tested, and the “dissolving” value [1] was “significantly dissolve accumulated crystals protein; also recorded: significant dissolving of the accumulated crystal protein”.
`CC(C)CCC[C@@H](C)[C@H]1CC[C@H]2[C@@H]3CC[C@H]4C[C@@H](O)CC[C@]4(C)[C@H]3CC[C@]12C` [β-cholestanol] was tested, and the “dissolving” value [1] was “significantly dissolve accumulated crystals protein; also recorded: significant dissolving of the accumulated crystal protein”.

Reference: patent publication US20190117675A1, “Compositions And Methods To Treat And/Or Prevent Vision Disorders Of The Lens Of The Eye” (Helix Holding Company, priority 2014, published 2019)
